Data: article PMC7391767, “Molecular mechanisms underlying menthol binding and activation of TRPM8 ion channel” (Nature Communications, 2020)
“And” between values parts separate entries of the source, which are not always exact repeats. Equal values may be shown once. “Also recorded” adds a separate entry of the source. Read-outs that look alike come from different tables or passages of the source.

What was measured:
wild-type TRPM8 [1] = target: T1, wild-type TRPM8 (Mus musculus, UniProt Q8R4D5); assay: whole-cell patch-clamp recording of ligand activation; format: cell-based
T1 construct: expressed in transfected cells; host or cells: HEK293T
T1 sequence (Q8R4D5 whole entry): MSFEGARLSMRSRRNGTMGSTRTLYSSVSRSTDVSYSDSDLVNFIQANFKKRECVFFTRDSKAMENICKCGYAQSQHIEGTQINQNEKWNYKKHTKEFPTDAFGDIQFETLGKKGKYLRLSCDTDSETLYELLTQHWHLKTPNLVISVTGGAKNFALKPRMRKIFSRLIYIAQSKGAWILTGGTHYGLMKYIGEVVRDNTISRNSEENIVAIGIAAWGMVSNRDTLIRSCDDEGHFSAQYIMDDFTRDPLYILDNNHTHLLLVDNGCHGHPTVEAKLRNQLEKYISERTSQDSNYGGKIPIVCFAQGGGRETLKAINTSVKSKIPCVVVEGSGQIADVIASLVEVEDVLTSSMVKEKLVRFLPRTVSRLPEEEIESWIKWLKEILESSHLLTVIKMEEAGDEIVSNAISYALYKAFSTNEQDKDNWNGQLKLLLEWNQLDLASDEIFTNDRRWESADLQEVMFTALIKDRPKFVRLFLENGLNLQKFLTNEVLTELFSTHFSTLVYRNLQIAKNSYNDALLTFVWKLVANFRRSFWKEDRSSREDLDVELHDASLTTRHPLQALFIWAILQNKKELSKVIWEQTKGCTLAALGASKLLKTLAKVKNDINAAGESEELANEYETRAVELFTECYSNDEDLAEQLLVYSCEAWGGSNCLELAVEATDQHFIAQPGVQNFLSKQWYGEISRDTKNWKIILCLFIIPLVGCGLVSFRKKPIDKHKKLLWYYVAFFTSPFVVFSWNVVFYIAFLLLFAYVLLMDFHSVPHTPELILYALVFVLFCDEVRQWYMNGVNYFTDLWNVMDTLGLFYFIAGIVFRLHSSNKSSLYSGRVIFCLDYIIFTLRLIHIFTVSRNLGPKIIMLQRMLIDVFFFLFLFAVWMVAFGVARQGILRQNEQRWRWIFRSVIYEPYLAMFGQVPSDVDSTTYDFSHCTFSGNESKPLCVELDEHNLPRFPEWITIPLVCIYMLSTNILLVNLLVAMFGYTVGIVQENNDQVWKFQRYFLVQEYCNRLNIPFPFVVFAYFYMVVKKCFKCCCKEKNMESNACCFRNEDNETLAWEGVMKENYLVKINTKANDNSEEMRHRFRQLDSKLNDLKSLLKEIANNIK
Experimental: (§1) Murine TRPM8 was used in this study. Point mutations were made by Fast Mutagenesis Kit V2 (SBS Genetech). Primers used to generate point mutations are summarized in Supplementary Table 2.
Cells were transiently transfected with cDNA constructs by Lipofectamine 3000 (Life Technologies) following the manufacturer’s protocol. Patch-clamp recordings were performed 1–2 days after transfection.
(§2) Patch-clamp recordings were performed with a HEKA EPC10 amplifier controlled by PatchMaster software (HEKA). Whole-cell recordings were performed at ±80 mV. Patch pipettes were prepared from borosilicate glass and fire-polished to resistance of ~4 MΩ. For whole-cell recording, serial resistance was compensated by 60%. For single-channel recordings, patch pipettes were fire-polished to a higher resistance of 6-to-10 MΩ and then recorded in the inside-out configuration. To maximize the chance of obtaining a patch with only one channel, single-channel recordings were performed about 8 h after transfection. A solution with 130 mM NaCl, 10 mM glucose, 0.2 mM EDTA, and 3 mM HEPES (pH 7.2) was used in both bath and pipette for either whole-cell or single-channel recordings. Membrane potential was clamped at +80 mV for single-channel recordings. Current was sampled at 10 kHz and filtered at 2.9 kHz. All recordings were performed at room temperature (22 °C) with the maximum variation of 1 °C.
(§3) Ligands such as menthol and its analogs were perfused to membrane patch by a gravity-driven system (RSC-200, Bio-Logic). Bath and ligand solution were delivered through separate tubes to minimize the mixing of solutions. Patch pipette was placed in front of the perfusion tube outlet.
(§4) Data from whole-cell recordings were analyzed in Igor Pro version 6.1 (WaveMatrix). EC50 values were derived from fitting a Hill equation to the concentration–response relationship. […] To distinguish these possibilities, dissociation constant (Kd) for ligand binding was estimated assuming the following gating scheme:1 C0↔KdC1↔LO, where L is the equilibrium constant for the final closed-to-open transition.

TRPM8 Y745F = target: T2, TRPM8 Y745F (Mus musculus, UniProt Q8R4D5, Y745F); assay: whole-cell patch-clamp and thermodynamic mutant cycle analysis; format: cell-based
T2 construct: expressed in transfected cells; host or cells: HEK293T
T2 sequence (Q8R4D5 whole entry Y745F): as the sequence (Q8R4D5 whole entry) above, with Y745F counted along it
Experimental: Murine TRPM8 was used in this study. Point mutations were made by Fast Mutagenesis Kit V2 (SBS Genetech). Primers used to generate point mutations are summarized in Supplementary Table 2. All mutations were confirmed by sequencing.
(§5) HEK293T cells purchased from Kunming Cell Bank, Kunming Institute of Zoology, Chinese Academy of Sciences (ATCC, CRL-3216) were cultured in Dulbecco’s modified Eagle’s medium supplemented with 20 mM L-glutamine and 10% fetal bovine serum. Cells were transiently transfected with cDNA constructs by Lipofectamine 3000 (Life Technologies) following the manufacturer’s protocol. Patch-clamp recordings were performed 1–2 days after transfection.
as §2, §3
Data from whole-cell recordings were analyzed in Igor Pro version 6.1 (WaveMatrix). EC50 values were derived from fitting a Hill equation to the concentration–response relationship. Changes in EC50 by point mutation may be caused by either perturbation of ligand bind or channel gating or both. To distinguish these possibilities, dissociation constant (Kd) for ligand binding was estimated assuming the following gating scheme:1 C0↔KdC1↔LO, where L is the equilibrium constant for the final closed-to-open transition.
(§6) To perform thermodynamic cycle analysis, Kd values of four channel-ligand combinations (WT channel, menthol: Kd _1; Mutant channel, menthol: Kd _2; WT channel, menthol analog: Kd _3; Mutant channel, menthol analog: Kd _4) were determined separately. The strength of coupling was determined by the coupling energy (kT multiplied by LnΩ, where k is the Boltzmann constant and T is temperature in Kelvin). LnΩ was calculated by Eq. (2) as[51]2 LnΩ=LnKd_1⋅Kd_4/Kd_2⋅Kd_3.

TRPM8 D802I = target: T3, TRPM8 D802I (Mus musculus, UniProt Q8R4D5, D802I); assay: as above; format: cell-based
T3 construct: expressed in transfected cells; host or cells: HEK293T
T3 sequence (Q8R4D5 whole entry D802I): as the sequence (Q8R4D5 whole entry) above, with D802I counted along it
Experimental: as §1, §5, §2, §3, §4, §6

TRPM8 D802L = target: T4, TRPM8 D802L (Mus musculus, UniProt Q8R4D5, D802L); assay: as above; format: cell-based
T4 construct: expressed in transfected cells; host or cells: HEK293T
T4 sequence (Q8R4D5 whole entry D802L): as the sequence (Q8R4D5 whole entry) above, with D802L counted along it
Experimental: as §1, §5, §2, §3, §4, §6

TRPM8 D802S = target: T5, TRPM8 D802S (Mus musculus, UniProt Q8R4D5, D802S); assay: as above; format: cell-based
T5 construct: expressed in transfected cells; host or cells: HEK293T
T5 sequence (Q8R4D5 whole entry D802S): as the sequence (Q8R4D5 whole entry) above, with D802S counted along it
Experimental: as §1, §5, §2, §3, §4, §6

TRPM8 L797A = target: T6, TRPM8 L797A (Mus musculus, UniProt Q8R4D5, L797A); assay: as above; format: cell-based
T6 construct: expressed in transfected cells; host or cells: HEK293T
T6 sequence (Q8R4D5 whole entry L797A): as the sequence (Q8R4D5 whole entry) above, with L797A counted along it
Experimental: as §1, §5, §2, §3, §4, §6

TRPM8 R842K = target: T7, TRPM8 R842K (Mus musculus, UniProt Q8R4D5, R842K); assay: as above; format: cell-based
T7 construct: expressed in transfected cells; host or cells: HEK293T
T7 sequence (Q8R4D5 whole entry R842K): as the sequence (Q8R4D5 whole entry) above, with R842K counted along it
Experimental: as §1, §5, §2, §3, §4, §6

TRPM8 W798A = target: T8, TRPM8 W798A (Mus musculus, UniProt Q8R4D5, W798A); assay: as above; format: cell-based
T8 construct: expressed in transfected cells; host or cells: HEK293T
T8 sequence (Q8R4D5 whole entry W798A): as the sequence (Q8R4D5 whole entry) above, with W798A counted along it
Experimental: as §1, §5, §2, §3, §4, §6

TRPM8 Y1005F = target: T9, TRPM8 Y1005F (Mus musculus, UniProt Q8R4D5, Y1005F); assay: as above; format: cell-based
T9 construct: expressed in transfected cells; host or cells: HEK293T
T9 sequence (Q8R4D5 whole entry Y1005F): as the sequence (Q8R4D5 whole entry) above, with Y1005F counted along it
Experimental: as §1, §5, §2, §3, §4, §6

wild-type TRPM8 [2] = target: T1, wild-type TRPM8; assay: open probability from noise analysis of macroscopic current and single-channel recordings; format: cell-based; details: wild-type TRPM8; near saturating concentration (menthol 500 µM)
Experimental: as §2
From single-channel recordings, the open probability (Po) was calculated after events detection with a hidden Markov approach in the software QuB[49] (http://www.qub.buffalo.edu/). A dead time of 0.32 ms was imposed. As a complementary approach, Po was also estimated from noise analysis[52] of whole-cell recordings. Briefly, the mean current amplitude (I), the squared deviations in current amplitude from the mean value (σ^2), and the single-channel current (i) were measured experimentally from a membrane patch of ion channels. Then the number of ion channels clamped in that patch (N) was determined as3 N=I^2/i⋅I−σ^2.
The maximum current when each of ion channel is at the open state with a Po of 1 is equal to i × N. Then the open probability was calculated as the ratio between the measured macroscopic current and the maximum current calculated by noise analysis. To estimate channel conductance, current amplitude was estimated from all-point histogram of single-channel recordings.

TRPV1 = assay: whole-cell patch-clamp recording in response to a voltage ramp; format: cell-based
Source text: (b) Representative whole- cell patch- clamp recording of capsaicin activation of TRPV1 in response to a voltage ramp.

TRPM8 = details: cited from earlier work
[3] = mutant cycle menthol vs labelled analog

## CC(C)[C@@H]1CC[C@@H](C)CC1=O [menthone, (−)-menthone]
wild-type TRPM8 [1]; WT
  L (equilibrium constant between closed and open states upon ligand binding), Ave: 0.9574
  L, single recording: 1.13 and 1.132 and 0.6097
  Ratio X1 (Kd menthol / Kd labelled analog): 0.62
wild-type TRPM8 [1]; WT, 100 microM
  concentration–response curve value, ave: 0.02705
  concentration–response curve value, single recording: 0.02655 and 0.02755
wild-type TRPM8 [1]; WT, 700 microM
  concentration–response curve value, ave: 0.1118
  concentration–response curve value, single recording: 0.1118
wild-type TRPM8 [1]; WT, 800 microM
  concentration–response curve value, ave: 0.223
wild-type TRPM8 [1]; WT, 1000 microM
  concentration–response curve value, ave: 0.4153
  concentration–response curve value, single recording: 0.3958 and 0.4096 and 0.4406
wild-type TRPM8 [1]; WT, 5000 microM
  concentration–response curve value, ave: 0.5864
  concentration–response curve value, single recording: 0.584 and 0.6851 and 0.4903
wild-type TRPM8 [1]; WT, 10000 microM
  concentration–response curve value, ave: 0.596
  concentration–response curve value, single recording: 0.562 and 0.63
wild-type TRPM8 [1]; WT, read-out: Kd, single recording
  Kd: 1400 µM and 2020 µM and 1340 µM
wild-type TRPM8 [1]; wild-type TRPM8, Hill equation fit of concentration–response, patch-clamp
  EC50: 813 ± 84.3 µM
TRPM8 Y745F
  Ratio X2 (Kd menthol / Kd labelled analog): 1.11
TRPM8 Y745F; menthol vs labelled analog
  Omega(X1/X2): 0.56
TRPM8 Y745F; [3]
  Coupling Energy: 0.59 kT
TRPM8 D802I
  Ratio X2 (Kd menthol / Kd labelled analog): 1.35
TRPM8 D802I; menthol vs labelled analog
  Omega(X1/X2): 0.46
TRPM8 D802I; [3]
  Coupling Energy: 0.78 kT
TRPM8 D802L
  Ratio X2 (Kd menthol / Kd labelled analog): 3.06
TRPM8 D802L; menthol vs labelled analog
  Omega(X1/X2): 0.20
TRPM8 D802L; [3]
  Coupling Energy: 1.60 kT
TRPM8 D802S
  Ratio X2 (Kd menthol / Kd labelled analog): 2.58
TRPM8 D802S; menthol vs labelled analog
  Omega(X1/X2): 0.24
TRPM8 D802S; [3]
  Coupling Energy: 1.42 kT
TRPM8 L797A
  Ratio X2 (Kd menthol / Kd labelled analog): 1.22
TRPM8 L797A; menthol vs labelled analog
  Omega(X1/X2): 0.51
TRPM8 L797A; [3]
  Coupling Energy: 0.67 kT
TRPM8 R842K
  L (equilibrium constant between closed and open states upon ligand binding), Ave: 0.246
  Ratio X2 (Kd menthol / Kd labelled analog): 4.90
TRPM8 R842K; 800 microM
  concentration–response curve value, ave: 0.04014
  concentration–response curve value, single recording: 0.05631 and 0.03329 and 0.03847 and 0.03248
TRPM8 R842K; 1000 microM
  concentration–response curve value, ave: 0.05391
  concentration–response curve value, single recording: 0.07259 and 0.05411 and 0.04679 and 0.04215
TRPM8 R842K; 5000 microM
  concentration–response curve value, ave: 0.1385
TRPM8 R842K; calculated from concentration–response curves, read-out: Kd, Ave
  Kd: 1780 µM
TRPM8 R842K; menthol vs labelled analog
  Omega(X1/X2): 0.13
TRPM8 R842K; [3]
  Coupling Energy: 2.07 kT
TRPM8 R842K; read-out: Kd, single recording
  Kd: 1120 µM and 2990 µM and 1510 µM and 1500 µM
TRPM8 W798A
  Ratio X2 (Kd menthol / Kd labelled analog): 0.21
TRPM8 W798A; menthol vs labelled analog
  Omega(X1/X2): 2.89
TRPM8 W798A; [3]
  Coupling Energy: 1.06 kT
TRPM8 Y1005F
  Ratio X2 (Kd menthol / Kd labelled analog): 0.15
TRPM8 Y1005F; menthol vs labelled analog
  Omega(X1/X2): 4.12
TRPM8 Y1005F; [3]
  Coupling Energy: 1.42 kT
wild-type TRPM8 [2]
  maximum open probability (Po max): 0.48 ± 0.05

## COc1cc(CNC(=O)CCCC/C=C/C(C)C)ccc1O [capsaicin]
TRPV1
  effect of deep hyperpolarization on ligand-activated channel: not antagonized

## C[C@H](c1ccc(F)cc1)N(Cc1cccc(C(=O)O)c1)C(=O)c1cnc2ccccc2c1 [PF-05105679]
TRPM8
  effect on cold-related pain: effectively suppress cold-related pain
TRPM8; patients, clinical trials
  temperature sensation (side effect): side effects of altering temperature sensation; also recorded: altered temperature sensation in patients
